According to patent publication US9682961B2, “Quinazoline derivative” (CARNA BIOSCIENCES, INC., priority 2013, dated 2017):

What was measured:
[1] = tested on: human-derived colorectal cancer cell line HCT116; experiment: Antitumor effects in mice model subcutaneously transplanted with human-derived cancer cell line; assay type: in vivo; settings: oral, twice a day for 14 days, HCT116 nude mice
Description: The antitumor effects of the compound of the present invention were studied using nude mice subcutaneously transplanted with a human-derived colorectal cancer cell line HCT116, in which the Wnt signaling pathway was constantly activated.
HCT116 cells cultured in the same manner as in Test Example 2 were adjusted with D-PBS (NACALAI TESQUE, INC.) so as to have a cell concentration of 7.5×10^7/mL, and the cell suspension was ice cooled in a 15 mL tube. To the cell suspension, Matrigel (BD Biosciences Co.) was added in an amount of one-fourth of the cell suspension to prepare a preparation for cell transplantation. Into the back of BALB/c Slc-nu/nu mice (female, 8 weeks old, Japan SLC, Inc.), 0.1 mL of the preparation for cell transplantation was subcutaneously injected. […]
To the respective mice transplanted with cancer cells (nine in each group), forced oral administration of doses of the substance to be tested calculated from their body weights was performed twice a day (at intervals of six hours or more) for 14 days in total. Tumor volumes of the respective mice were calculated using the following formulas, and the antitumor effects were evaluated using a relative tumor volume ratio as an indicator.

c-MYC gene expression = experiment: Expression level of Wnt/β-catenin target gene c-MYC by real-time PCR in HCT116 cells; assay type: cell-based, human; settings: 10 and 3 μM, 24 hours
Description: Effects of the compound of the present invention on Wnt/β-catenin signaling activity were studied using the real-time PCR method as well as using as an indicator changes in expression levels of target genes of the Wnt/β-catenin signaling pathway. To a RPMI 1640 medium (NACALAI TESQUE, INC.), 10% FBS (AusGeneX PTY LTD.) and 1% Penicillin/Streptomycin (NACALAI TESQUE, INC.) were added to prepare a cell culture medium (hereinafter referred to as medium 1). In a T75 flask, HCT116 cells (ATCC No. CCL-247) were added to the medium 1. The cells in the flask were cultured in the 5% CO2 incubator. The cultured HCT116 cells were diluted with the medium 1 so as to have a cell concentration of 1.1×10^5 cells/mL. Into the T75 flask, 13.5 mL of the diluted cells was seeded, followed by culturing overnight in the 5% CO2 incubator. […] Total RNA concentration was measured by a microspectrophotometer (Thermo Fisher Scientific Inc., Nano Drop ND-1000). […] The results were calculated as the expression ratio of the target gene to the endogenous control gene (β-Actin) by the comparative Ct method using a DMSO group as a reference.

O[C@H]1CC[C@@H](Oc2cccc3cnc(Nc4ccc5nc[nH]c5c4)nc23)CC1 [Example 1, cis-4-({2-[(1H-benzo[d]imidazol-6-yl)amino]quinazolyn-8-yl}oxy)cyclohexanol]
Tumor growth inhibition rate (TGI) on the last administration day ([1]; 40 mg/kg): 42% | Tumor growth inhibition rate (TGI) on the last administration day ([1]; 80 mg/kg): 70% | c-MYC gene expression (c-MYC gene expression): inhibited the expression of AXIN2 and c-MYC
